# From US4183909A, “Phenylglycine-containing new peptides with gastrine effects and a process for the preparation thereof” (Richter Gedeon Vegyeszeti Gyar Rt., priority 1976, dated 1980)
# Square brackets hold non-standard residues; d marks the D form. Peptide text beside a SMILES is read from it. * marks the point of attachment. dPhg = N[C@@H](C(=O)O)c1ccccc1; Phg = N[C@H](C(=O)O)c1ccccc1; X1 = CC(C)(C)OC(=O)NOCC(=O)*
# Columns and labels:
# gastric acid secretion [1] = settings: in vivo; cited from earlier work
# gastric acid secretion [2] = assay: Gastric acid secretion increasing effect, administered parenterally or enterally (methods of Ghosh and Schild and of Lai, modified by Pissidis and Clark); format: in vivo
# Procedure: The biological activities of the new compounds according to the invention were tested by the methods of Ghosh and Schild (Br. J. Pharmac. Chemoth. 13, 54 1958) and Lai (Gut 5, 327 1964), modified by Pissidis and Clark (Gut 8, 196 1967). The pharmacological tests have shown that the new compounds, when administered intravenously, increase the gastric acid secretion to a great extent. […] It is also remarkable that some of the new compounds highly increase the gastric acid secretion after resorption from the rectum.
molecule,measurement,setting,value
H-Trp-Met-Asp-Phe-NH2,Gastric acid secretion stimulating effect relative to the total hormone (gastrin),gastric acid secretion [1],lower by about one order of magnitude
"CSCC[C@H](NC(=O)[C@H](Cc1c[nH]c2ccccc12)NC(=O)CCNC(=O)OC(C)(C)C)C(=O)N[C@@H](CC(=O)O)C(=O)N[C@@H](Cc1ccccc1)C(N)=O [pentagastrin, BOC-β-Ala-Trp-Met-Asp-Phe-NH2, reference compound]",Effect on gastric acid secretion,"gastric acid secretion [2]; administered enterally, even in higher dosages",does not increase the gastric acid secretion
"CSCC[C@H](NC(=O)[C@H](Cc1c[nH]c2ccccc12)NC(=O)CONC(=O)OC(C)(C)C)C(=O)N[C@@H](CC(=O)O)C(=O)N[C@H](C(N)=O)c1ccccc1 [BOC-OGly Met L, 2-(tert.-Butoxycarbonyl-aminooxy)-acetyl-L-tryptophyl-L-methionyl-L-aspartyl-L-phenylglycine-amide] (X1-WMD[Phg]-NH2)",Gastric acid secretion increasing effect in comparison with that of a 0.2 μg/100 g i.v. dosage of pentagastrin,gastric acid secretion [2]; 2.0 μg i.v.,116
same,Gastric acid secretion increasing effect in comparison with that of a 0.2 μg/100 g i.v. dosage of pentagastrin,gastric acid secretion [2]; 20 μg intestinal (text: 20 μg/100 g body weight),124
same,Gastric acid secretion increasing effect in comparison with that of a 0.2 μg/100 g i.v. dosage of pentagastrin,gastric acid secretion [2]; 20 μg rectal,38
"CSCC[C@H](NC(=O)[C@H](Cc1c[nH]c2ccccc12)NC(=O)CONC(=O)OC(C)(C)C)C(=O)N[C@@H](CC(=O)O)C(=O)N[C@@H](C(N)=O)c1ccccc1 [BOC-OGly Met D, 2-(tert.-Butoxycarbonyl-aminooxy)-acetyl-L-tryptophyl-L-methionyl-L-aspartyl-D-phenylglycine-amide] (X1-WMD[dPhg]-NH2)",Gastric acid secretion increasing effect in comparison with that of a 0.2 μg/100 g i.v. dosage of pentagastrin,gastric acid secretion [2]; 0.2 μg i.v.,28
same,Gastric acid secretion increasing effect in comparison with that of a 0.2 μg/100 g i.v. dosage of pentagastrin,gastric acid secretion [2]; 2.0 μg i.v.,50
